For data set [1] the following is noted: 25° C.; cited from earlier work.
For data set [2] the following is noted: 1 h.
Data set [3] is described as follows: Solubility at saturation of F12511 in solvents at 25° C. Type of data set: physicochemical. To be noted: thermodynamic from solid. Here is the method: By way of example, the table below gives some characteristic solubilities at saturation, at 25° C.: […]
A short description of a further data set: physchem. To be noted: 25 °C, aqueous with cosolvent or surfactant or cyclodextrin, thermodynamic from solid.
The mark [4] stands for this setting: Amount of F12511 solubilized in a solution of sodium lauryl sulfate at 5%.

Converted amounts (≈) assume the structure as drawn. Where two headings read alike, the source gives them in different places.

In the case of `OC[C@H]1O[C@@H]2O[C@H]3[C@H](O)[C@@H](O)[C@@H](O[C@H]4[C@H](O)[C@@H](O)[C@@H](O[C@H]5[C@H](O)[C@@H](O)[C@@H](O[C@H]6[C@H](O)[C@@H](O)[C@@H](O[C@H]7[C@H](O)[C@@H](O)[C@@H](O[C@H]1[C@H](O)[C@H]2O)O[C@@H]7CO)O[C@@H]6CO)O[C@@H]5CO)O[C@@H]4CO)O[C@@H]3CO` [α-cyclodextrin], in data set [1], the Water-solubility is given as 14.2 g % ml,.
Take `CCCCCCCCCCCCS[C@H](C(=O)Nc1cc(C)c(O)c(C)c1C)c1ccccc1` [Example F12511, (S)-2′,3′,5′-trimethyl-4′-hydroxy-α-dodecylthiophenylacetanilide]: the “Amount of F12511 solubilized in a solution of sodium lauryl sulfate at 5%” value in data set [2] amounted to 5 µg/mL. Also, the solubility in data set [3] (Macrogol 400, 25 °C, organic solvent or mixture, Macrogol 400, 25° C., read-out: Solubility at saturation) was 1000 µg/mL (≈ 2130 µM); in data set [3] (corn oil, 25 °C, oil or lipid, Corn oil, 25° C., read-out: Solubility at saturation) it was 300 µg/mL (≈ 639 µM); in data set [3] (ethanol, 25 °C, organic solvent or mixture, Ethanol, 25° C., read-out: Solubility at saturation), 7000 µg/mL (≈ 14900 µM); in data set [3] (ethyl alcohol at 95%, 25 °C, organic solvent or mixture, ethyl alcohol at 95%, read-out: Solubility at saturation), ≤ 2000 µg/mL; in data set [3] (water, 25 °C, water, Water, 25° C., limit of analytical detection, read-out: Solubility at saturation) it was < 0.05 µg/mL; in data set [3] (water, 25 °C, water, water, limit of analytical detection, read-out: Solubility at saturation in water), < 0.05 µg/mL. Further, the solubility at 2 h in “physchem” (Amount of F12511 solubilized) is ~10 µg/mL (≈ 21.3 µM); in the data set “physchem” (setting [4]) it was 11 µg/mL (≈ 23.4 µM). The molecule further yielded a solubility at 5 min in “physchem” (setting [4]) of 1 µg/mL (≈ 2.13 µM). This molecule also had a solubility at 30 min in “physchem” (setting [4]) of 3 µg/mL (≈ 6.39 µM). This molecule displayed a solubility at 1 h in “physchem” (setting [4]) of 5 µg/mL (≈ 10.6 µM).

The values are drawn from patent US6864246B2, “Anilide and cyclodextrin complexes, their preparation and their use as medicine in particular for treating dyslipidemiae” (Pierre Fabre Medicament, priority 2001, dated 2005).
